Assays:
[1] = biological target: hERG channels (Homo sapiens (Human), UniProt Q12809); assay: hERG Manual Patch Clamp Assay (HEK 293 cells stably expressing hERG channels); type: cell-based; details: human, HEK 293 cells stably expressing hERG channels, pH 7.4
[2] = biological target: hROMK (human Kir1.1) (Homo sapiens (Human), UniProt P48048); assay: Thallium Flux Assay (FluxOR, CHO T-Rex hROMK stable cell line); type: cell-based; details: CHO T-Rex hROMK cells, 10-point concentration response curve; read-out: Human ROMK TH Flux IC50
Chain of hROMK (human Kir1.1) (P48048 whole entry): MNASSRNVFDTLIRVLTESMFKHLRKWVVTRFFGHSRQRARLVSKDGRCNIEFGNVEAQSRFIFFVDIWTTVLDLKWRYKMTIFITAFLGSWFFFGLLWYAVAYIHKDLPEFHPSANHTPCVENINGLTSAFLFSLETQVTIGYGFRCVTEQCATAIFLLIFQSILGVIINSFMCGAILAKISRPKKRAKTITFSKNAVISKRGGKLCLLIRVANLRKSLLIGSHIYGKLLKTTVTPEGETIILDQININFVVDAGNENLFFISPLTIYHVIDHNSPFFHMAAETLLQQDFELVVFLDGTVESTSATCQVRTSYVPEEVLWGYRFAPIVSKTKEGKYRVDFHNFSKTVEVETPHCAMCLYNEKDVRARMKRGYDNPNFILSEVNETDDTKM
Procedure: Solutions and reagents: Thallium flux assay was performed using FluxOR kit (F10017, Life Technologies). Loading buffer, assay buffer and stimulus buffer were prepared using kit components.
To prepare 10 ml of loading buffer: 10 μl of FluxOR dye (reconstituted in DMSO) was first added to 100 μl of powerload concentrate and this mix along with 100 μl of Probenicid (100×) was then added to 9.79 ml of HBSS. […] Stimulus buffer was composed of 15 mM Tl2SO4, 0.75 mM K2SO4 in FluxOR chloride free buffer (diluted to 1× using deionized water). The final concentration of Tl2SO4 and K2SO4 in the assay plate was 3 mM and 0.15 mM, respectively.
Plating and induction of cells: The CHO T-Rex hROMK (human Kir1.1) stable cell line was maintained in Ham's F12 media supplemented with 10% FBS, 1% Penicillin-Streptomycin, 500 μg/ml Zeocin and 10 μg/ml Blasticidin at 37° C. in a 5% CO2 incubator. […] The cell suspension was centrifuged at 1200 rpm for 5 min. After discarding the supernatant, the cells were resuspended in fresh growth media and cell concentration was determined using a hemocytometer. […] The assay plate was kept at 37° C. in a 5% CO2 incubator.
Assay protocol: On the day of experiment, media was removed and loading buffer was added (30 μl/well) to the assay plate. The cells were incubated in the loading buffer for 30 minutes at 37° C. The loading buffer was then replaced by assay buffer (30 μl/well) followed by addition of test compounds or controls. […] Each well was read for 90 sec at 2 sec interval and the stimulus buffer was added after 20 seconds of baseline recording. The final DMSO concentration was either 0.5 or 1% in the assay plate. Positive and negative controls were defined by addition of DMSO or 3 μM of a standard ROMK inhibitor, respectively, to the wells instead of a test compound.
A 10-point concentration response curve was used to estimate the IC50 value of test compounds.

Chain of hERG channels (Q12809 whole entry): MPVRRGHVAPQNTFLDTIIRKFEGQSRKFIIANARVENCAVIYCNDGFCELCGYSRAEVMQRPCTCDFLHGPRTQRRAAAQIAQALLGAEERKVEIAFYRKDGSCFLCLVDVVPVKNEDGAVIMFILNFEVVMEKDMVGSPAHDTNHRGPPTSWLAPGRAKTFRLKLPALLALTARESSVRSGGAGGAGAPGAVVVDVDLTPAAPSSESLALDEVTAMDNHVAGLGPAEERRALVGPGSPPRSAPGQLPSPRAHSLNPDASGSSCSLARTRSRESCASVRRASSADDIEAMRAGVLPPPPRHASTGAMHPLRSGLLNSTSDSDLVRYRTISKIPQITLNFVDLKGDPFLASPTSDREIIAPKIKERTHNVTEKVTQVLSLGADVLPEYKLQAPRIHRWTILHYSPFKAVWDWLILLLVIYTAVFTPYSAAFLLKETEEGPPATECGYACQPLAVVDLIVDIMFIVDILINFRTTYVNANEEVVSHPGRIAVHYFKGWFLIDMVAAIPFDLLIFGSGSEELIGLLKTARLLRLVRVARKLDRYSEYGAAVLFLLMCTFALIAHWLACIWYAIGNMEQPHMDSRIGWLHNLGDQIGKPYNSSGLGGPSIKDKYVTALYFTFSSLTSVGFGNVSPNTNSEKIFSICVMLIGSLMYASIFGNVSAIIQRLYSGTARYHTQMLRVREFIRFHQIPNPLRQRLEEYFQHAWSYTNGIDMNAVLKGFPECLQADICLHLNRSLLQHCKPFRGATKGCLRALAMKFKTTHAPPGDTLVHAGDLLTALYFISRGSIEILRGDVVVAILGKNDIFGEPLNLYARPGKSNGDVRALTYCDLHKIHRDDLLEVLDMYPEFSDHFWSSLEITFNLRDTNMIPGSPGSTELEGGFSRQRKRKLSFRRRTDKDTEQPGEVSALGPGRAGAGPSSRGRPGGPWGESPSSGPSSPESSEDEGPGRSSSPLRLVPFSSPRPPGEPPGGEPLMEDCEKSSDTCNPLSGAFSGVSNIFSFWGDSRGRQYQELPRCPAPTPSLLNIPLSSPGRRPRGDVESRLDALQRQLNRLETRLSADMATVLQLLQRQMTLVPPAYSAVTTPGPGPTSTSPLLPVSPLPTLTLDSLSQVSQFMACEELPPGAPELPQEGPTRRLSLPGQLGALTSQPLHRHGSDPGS

| SMILES | inhibition at 1 µM [1] [%] | IC50 [2] [nM] |
| --- | --- | --- |
| COc1c(CNC[C@H](O)c2ccc3c(c2C)COC3=O)cnn1-c1cc(C)c(C#N)cn1 [Example 35, (R)-6-(4-(((2-hydroxy-2-(4-methyl-1-oxo-1,3-dihydroisobenzofuran-5-yl)ethyl)amino)methyl)-5-methoxy-1H-pyrazol-1-yl)-4-methylnicotinonitrile] | 91 | 1 |
| COc1cc(-c2ccc(CNC[C@H](O)c3ccc4c(c3C)COC4=O)c(OC)n2)ncc1C#N [Example 82, (R)-5′-(((2-hydroxy-2-(4-methyl-1-oxo-1,3-dihydroisobenzofuran-5-yl)ethyl)amino)methyl)-4,6′-dimethoxy-[2,2′-bipyridine]-5-carbonitrile] | 44 | 31 |
| COCCN[C@@H](CNCc1cnn(-c2cc(C)c(C#N)cn2)c1)c1ccc2c(c1C)COC2=O [Example 57, (R)-6-(4-(((2-((2-methoxyethyl)amino)-2-(4-methyl-1-oxo-1,3-dihydroisobenzofuran-5-yl)ethyl)amino)methyl)-1H-pyrazol-1-yl)-4-methylnicotinonitrile] | 35 | 150 |
| Cc1c([C@@H](O)CNCc2ccc(-n3cc(C#N)c(OC(F)F)n3)nc2)ccc2c1COC2=O [Example 175, (R)-3-(difluoromethoxy)-1-(5-(((2-hydroxy-2-(4-methyl-1-oxo-1,3-dihydroisobenzofuran-5-yl)ethyl)amino)methyl)pyridin-2-yl)-1H-pyrazole-4-carbonitrile] | 86 | 3.6 |
| Cc1cc(-n2cc(CNC[C@H](O)c3ccc4c(c3C)COC4=O)c(C(F)F)n2)ncc1C#N [Example 93, (R)-6-(3-(difluoromethyl)-4-(((2-hydroxy-2-(4-methyl-1-oxo-1,3-dihydroisobenzofuran-5-yl)ethyl)amino)methyl)-1H-pyrazol-1-yl)-4-methylnicotinonitrile] | 29 | 15 |
| COC(=O)N[C@@H](CNCc1cnn(-c2cc(C)c(C#N)cn2)c1)c1ccc2c(c1C)COC2=O [Example 60, methyl (R)-(2-(((1-(5-cyano-4-methylpyridin-2-yl)-1H-pyrazol-4-yl)methyl)amino)-1-(4-methyl-1-oxo-1,3-dihydroisobenzofuran-5-yl)ethyl)carbamate] | 12 | 72 |
| CCc1nn(-c2ncc(CNC[C@H](O)c3ccc4c(c3C)COC4=O)cn2)cc1C#N [Example 114, (R)-3-ethyl-1-(5-(((2-hydroxy-2-(4-methyl-1-oxo-1,3-dihydroisobenzofuran-5-yl)ethyl)amino)methyl)pyrimidin-2-yl)-1H-pyrazole-4-carbonitrile] | 25 | 17 |
| Cc1c([C@@H](O)CNCc2cnn(-c3ccc(C#N)cc3)c2)ccc2c1COC2=O [Example 160, (R)-4-(4-(((2-hydroxy-2-(4-methyl-1-oxo-1,3-dihydroisobenzofuran-5-yl)ethyl)amino)methyl)-1H-pyrazol-1-yl)benzonitrile] | 89 | 24 |
| COc1cc(-n2cc(CNC[C@H](O)c3ccc4c(c3C)COC4=O)cn2)ncc1C#N [Example 173, (R)-6-(4-(((2-hydroxy-2-(4-methyl-1-oxo-1,3-dihydroisobenzofuran-5-yl)ethyl)amino)methyl)-1H-pyrazol-1-yl)-4-methoxynicotinonitrile] | 77 | 2.4 |
| Cc1ncn(-c2ncc(CNC[C@H](O)c3ccc4c(c3C)COC4=O)cn2)c1C [Example 88, (R)-5-(2-(((2-(4,5-dimethyl-1H-imidazol-1-yl)pyrimidin-5-yl)methyl)amino)-1-hydroxyethyl)-4-methylisobenzofuran-1(3H)-one] | 3.6 | 42 |
| CCN(Cc1ccc(-c2ccc3oc(=O)n(C)c3c2)nc1)C[C@H](O)c1ccc2c(c1C)COC2=O [Example 135, (R)-5-(5-((ethyl(2-hydroxy-2-(4-methyl-1-oxo-1,3-dihydroisobenzofuran-5-yl)ethyl)amino)methyl)pyridin-2-yl)-3-methylbenzo[d]oxazol-2(3H)-one] | 51 | 67 |
| Cc1c([C@@H](O)CNCc2cccc(-c3ccc4oc(=O)n(C)c4c3)n2)ccc2c1COC2=O [Example 133, (R)-5-(6-(((2-hydroxy-2-(4-methyl-1-oxo-1,3-dihydroisobenzofuran-5-yl)ethyl)amino)methyl)pyridin-2-yl)-3-methylbenzo[d]oxazol-2(3H)-one] | 59 | 900 |
| Cc1c(C(O)CN(C)Cc2ccc(-n3ccc4c(C#N)cccc43)cc2)ccc2c1COC2=O (single isomer, unassigned) [Example 28-I, 1-(4-(((2-hydroxy-2-(4-methyl-1-oxo-1,3-dihydroisobenzofuran-5-yl)ethyl)(methyl)amino)methyl)phenyl)-1H-indole-4-carbonitrile] | 94 | 180 |
| COc1nc(-n2cc(CNC[C@H](O)c3ccc4c(c3C)COC4=O)cn2)ccc1C#N [Example 48, (R)-6-(4-(((2-hydroxy-2-(4-methyl-1-oxo-1,3-dihydroisobenzofuran-5-yl)ethyl)amino)methyl)-1H-pyrazol-1-yl)-2-methoxynicotinonitrile] | 67 | 14 |
| Cc1c([C@@H](O)CNCc2ccc(-n3ccc(C#N)n3)nc2)ccc2c1COC2=O [Example 151, (R)-1-(5-(((2-hydroxy-2-(4-methyl-1-oxo-1,3-dihydroisobenzofuran-5-yl)ethyl)amino)methyl)pyridin-2-yl)-1H-pyrazole-3-carbonitrile] | 45 | 29 |
| COc1cc(-c2ncc(CNC[C@H](O)c3ccc4c(c3C)COC4=O)cn2)ncc1C#N [Example 134, (R)-6-(5-(((2-hydroxy-2-(4-methyl-1-oxo-1,3-dihydroisobenzofuran-5-yl)ethyl)amino)methyl)pyrimidin-2-yl)-4-methoxynicotinonitrile] | 3.8 | 77 |
| Cc1c(C(O)CNCc2ccc(-c3ccc(C#N)c(F)c3)cc2)ccc2c1COC2=O (stereo not drawn) [Example 10-I, 3-fluoro-4′-(((2-hydroxy-2-(4-methyl-1-oxo-1,3-dihydroisobenzofuran-5-yl)ethyl)amino)methyl)-[1,1′-biphenyl]-4-carbonitrile] | 92 | 53 |
| Cc1cc(-c2ncc(CNC[C@H](O)c3ccc4c(c3C)COC4=O)s2)ncc1C#N [Example 128, (R)-6-(5-(((2-hydroxy-2-(4-methyl-1-oxo-1,3-dihydroisobenzofuran-5-yl)ethyl)amino)methyl)thiazol-2-yl)-4-methylnicotinonitrile] | 22 | 6.6 |
| CO[C@@H](CNCc1cnn(-c2cc(C)c(C#N)cn2)c1)c1ccc2c(c1C)COC2=O [Example 147, (R)-6-(4-(((2-methoxy-2-(4-methyl-1-oxo-1,3-dihydroisobenzofuran-5-yl)ethyl)amino)methyl)-1H-pyrazol-1-yl)-4-methylnicotinonitrile] | 28 | 37 |
| Cc1c([C@@H](O)CNCc2ccc(-n3cnc(C#N)n3)nc2)ccc2c1COC2=O [Example 132, (R)-1-(5-(((2-hydroxy-2-(4-methyl-1-oxo-1,3-dihydroisobenzofuran-5-yl)ethyl)amino)methyl)pyridin-2-yl)-1H-1,2,4-triazole-3-carbonitrile] | 61 | 26 |
| Cc1ncc(-c2ccc(CNC[C@H](O)c3ccc4c(c3C)COC4=O)cn2)s1 [Example 111, (R)-5-(1-hydroxy-2-(((6-(2-methylthiazol-5-yl)pyridin-3-yl)methyl)amino)ethyl)-4-methylisobenzofuran-1(3H)-one] | 69 | 48 |
| COc1nc(-n2cc(CNC[C@H](O)c3ccc4c(c3C)COC4=O)cn2)cc(C)c1C#N [Example 72, (R)-6-(4-(((2-hydroxy-2-(4-methyl-1-oxo-1,3-dihydroisobenzofuran-5-yl)ethyl)amino)methyl)-1H-pyrazol-1-yl)-2-methoxy-4-methylnicotinonitrile] | 35 | 14 |
| CCOc1cc(-n2cc(CNC[C@H](O)c3ccc4c(c3C)COC4=O)cn2)ncc1C#N [Example 152, (R)-4-ethoxy-6-(4-(((2-hydroxy-2-(4-methyl-1-oxo-1,3-dihydroisobenzofuran-5-yl)ethyl)amino)methyl)-1H-pyrazol-1-yl)nicotinonitrile] | 64 | 6.2 |
| Cc1cc(-n2cc(CNC[C@H](F)c3ccc4c(c3C)COC4=O)cn2)ncc1C#N [Example 167, (R)-6-(4-(((2-fluoro-2-(4-methyl-1-oxo-1,3-dihydroisobenzofuran-5-yl)ethyl)amino)methyl)-1H-pyrazol-1-yl)-4-methylnicotinonitrile] | 41 | 68 |
| CC(=O)N[C@@H](CNCc1cnn(-c2cc(C)c(C#N)cn2)c1)c1ccc2c(c1C)COC2=O [Example 39, (R)—N-(2-(((1-(5-cyano-4-methylpyridin-2-yl)-1H-pyrazol-4-yl)methyl)amino)-1-(4-methyl-1-oxo-1,3-dihydroisobenzofuran-5-yl)ethyl)acetamide] | 2.6 | 58 |
| Cc1c([C@@H](O)CNCc2cnc(-n3cc(C#N)c(C(F)(F)F)n3)nc2)ccc2c1COC2=O [Example 110, (R)-1-(5-(((2-hydroxy-2-(4-methyl-1-oxo-1,3-dihydroisobenzofuran-5-yl)ethyl)amino)methyl)pyrimidin-2-yl)-3-(trifluoromethyl)-1H-pyrazole-4-carbonitrile] | 13 | 42 |
| Cc1c([C@@H](O)CNCc2cnn(-c3cc(F)c4oc(=O)n(C)c4c3)c2)ccc2c1COC2=O (single isomer, unassigned) [Example 107] | 20 | 27 |

— patent US10723723B2, “Substituted bicycle heterocyclic derivatives useful as ROMK channel inhibitors” (BRISTOL-MYERS SQUIBB COMPANY, priority 2016, dated 2020)
